# According to patent US8841321B2, “Quinoline derivatives as antibacterial agents” (Janssen Pharmaceutica NV, priority 2005, dated 2014):
# Tests used:
# Experiment in all cases: Microtitre plate assay, IC90 determination
# Type in all cases: cell-based
# [1] = system: EFA 29212 (Enterococcus faecalis (ATCC29212)); settings: for IC90 (μg/ml) EFA 29212: Enterococcus faecalis (ATCC29212); for IC90: Enterococcus faecalis, ATCC29212, Enterococcus faecalis (ATCC29212), read-out: IC90 (μg/ml) EFA 29212
# [2] = system: LMO 49594 (Listeria monocytogenes (ATCC49594)); settings: for IC90: Listeria monocytogenes, ATCC49594, Listeria monocytogenes (ATCC49594), read-out: IC90 (μg/ml) LMO 49594; for IC90 (μg/ml) LMO 49594: Listeria monocytogenes (ATCC49594)
# [3] = system: STA 29213 (Staphylococcus aureus (ATCC29213)); settings: for IC90: Staphylococcus aureus, ATCC29213, Staphylococcus aureus (ATCC29213), read-out: IC90 (μg/ml) STA 29213; for IC90 (μg/ml) STA 29213: Staphylococcus aureus (ATCC29213)
# Outline: (§1)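 Growth-inhibition endpoint: resazurin added 3 h after inoculation, plates incubated overnight, fluorescence at 530/590 nm after 24 h at 37 °C. Inocula of roughly 10–60 CFU per well in Mueller-Hinton medium; compounds titrated five-fold. IC90 reported as μg/ml.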
# [4] = system: SPN 6305 (Streptococcus pneumoniae (ATCC6305)); settings: for IC90 (μg/ml) SPN 6305: Streptococcus pneumoniae (ATCC6305)
# Outline: as §1
# [5] = system: SPY 8668 (Streptococcus pyogens (ATCC8668)); settings: for IC90: Streptococcus, ATCC8668, Streptococcus pyogens (ATCC8668), read-out: IC90 (μg/ml) SPY 8668; for IC90 (μg/ml) SPY 8668: Streptococcus pyogens (ATCC8668)
# [6] = system: PAE 27853 (Pseudomonas aeruginosa (ATCC27853)); settings: for IC90: Pseudomonas aeruginosa, ATCC27853, Pseudomonas aeruginosa (ATCC27853), read-out: IC90 (μg/ml) PAE 27853; for IC90 (μg/ml) PAE 27853: Pseudomonas aeruginosa (ATCC27853)
# [7] = system: BSU 43639 (Bacillus subtilis (ATCC43639)); settings: for IC90: Bacillus subtilis, ATCC43639, Bacillus subtilis (ATCC43639), read-out: IC90 (μg/ml) BSU 43639; for IC90 (μg/ml) BSU 43639: Bacillus subtilis (ATCC43639)
# [8] = system: STA RMETH (methicilline resistant Staphylococcus aureus (MRSA), a clinical isolate from the University of Antwerp); settings: for IC90: Staphylococcus aureus, MRSA, read-out: IC90 (μg/ml) STA RMETH
# [9] = system: STA 25923 (Staphylococcus aureus (ATCC25923)); settings: for IC90: Staphylococcus aureus, ATCC25923, Staphylococcus aureus (ATCC25923), read-out: IC90 (μg/ml) STA 25923; for IC90 (μg/ml) STA 25923: Staphylococcus aureus (ATCC25923)
SMILES,IC90 (μg/ml) EFA 29212 [1],IC90 [2],IC90 [3],IC90 (μg/ml) SPN 6305 [4],IC90 [5],IC90 [6],IC90 [7],IC90 (μg/ml) STA RMETH [8],IC90 [1],IC90 [9],IC90 (μg/ml) STA 29213 [3],IC90 (μg/ml) PAE 27853 [6],IC90 [8],IC90 (μg/ml) STA 25923 [9],IC90 (μg/ml) LMO 49594 [2],IC90 (μg/ml) SPY 8668 [5],IC90 (μg/ml) BSU 43639 [7],"IC90 ([4]; Streptococcus pneumoniae, ATCC6305, Streptococcus pneumoniae (ATCC6305), read-out: IC90 (μg/ml) SPN 6305)"
COc1nc2ccc(Br)cc2cc1C(c1ccccc1)C(O)(CCCCN(C)C)c1ccc2cc(Br)ccc2c1 (stereo not shown) [Compound 7],10.5 µg/mL,10.5 µg/mL,2.1 µg/mL,2.4 µg/mL,10.5 µg/mL,10.5 µg/mL,10.5 µg/mL,10.5 µg/mL,,,,,,,,,,
CCN(CC)CCCC(O)(c1ccc2ccccc2c1)C(c1ccccc1)c1cc2cc(Br)ccc2nc1OC (stereo not shown) [Compound 51],,15 µg/mL,,11.9 µg/mL,13.4 µg/mL,,15 µg/mL,,59.8 µg/mL,15 µg/mL,59.8 µg/mL,47.5 µg/mL,15 µg/mL,,,,,
COc1nc2ccc(Br)cc2cc1C(c1ccccc1)C(O)(CCCCN(C)C)c1ccccc1 (stereo not shown) [Compound 21],21.2 µg/mL,,,11.9 µg/mL,,,,10.6 µg/mL,,,10.6 µg/mL,10.6 µg/mL,,10.6 µg/mL,10.6 µg/mL,10.6 µg/mL,10.6 µg/mL,
COc1nc2ccc(Br)cc2cc1C(c1ccccc1)C(O)(CCCN(C)C)c1ccccc1 (stereo not shown) [Compound 44],,,,11.6 µg/mL,,,41.3 µg/mL,13.1 µg/mL,26 µg/mL,,10.4 µg/mL,10.4 µg/mL,,13.1 µg/mL,13.1 µg/mL,9.2 µg/mL,,
COc1nc2ccc(Br)cc2cc1C(c1ccccc1)C(O)(CCCCN(C)C)c1ccc2ccccc2c1 (stereo not shown) [Compound 23],4.1 µg/mL,,,11.6 µg/mL,,,,58.4 µg/mL,,,1.9 µg/mL,1.9 µg/mL,,58.4 µg/mL,36.8 µg/mL,46.4 µg/mL,58.4 µg/mL,
COc1nc2ccc(Br)cc2cc1C(c1ccccc1)C(O)(CCCCN(C)C)c1cccc2ccccc12 (stereo not shown) [Compound 19],,11.6 µg/mL,14.7 µg/mL,,14.7 µg/mL,14.7 µg/mL,14.7 µg/mL,,14.7 µg/mL,14.7 µg/mL,,,14.7 µg/mL,,,,,14.7 µg/mL
"CSc1nc2ccc(Br)cc2cc1C(c1ccccc1)C(O)(CCCCN(C)C)c1ccc2ccccc2c1 (single isomer, unassigned) [Compound 4]",,9.5 µg/mL,,1.9 µg/mL,1.9 µg/mL,1.9 µg/mL,9.5 µg/mL,,9.5 µg/mL,,1.9 µg/mL,,9.5 µg/mL,,,,,
CSc1nc2ccc(Br)cc2cc1C(c1ccccc1)C(O)(CCCCN(C)C)c1ccccc1 (stereo not shown) [Compound 2],43.7 µg/mL,43.7 µg/mL,,21.9 µg/mL,,,43.7 µg/mL,43.7 µg/mL,,,43.7 µg/mL,43.7 µg/mL,,,,8.7 µg/mL,,
COc1ccc2cc(C(O)(CCCCN(C)C)C(c3ccccc3)c3cc4c(Br)cccc4nc3OC)ccc2c1 (stereo not shown) [Compound 27],61.4 µg/mL,61.4 µg/mL,1.9 µg/mL,61.4 µg/mL,,,48.7 µg/mL,61.4 µg/mL,,61.4 µg/mL,,9.7 µg/mL,,,,48.7 µg/mL,,
COc1nc2ccc(Br)cc2cc1C(c1ccccc1)C(O)(CCCN1CCCC1)c1ccc2ccccc2c1 (racemic) [Compound 49],47.3 µg/mL,,,11.9 µg/mL,,,,59.6 µg/mL,,,47.3 µg/mL,53.1 µg/mL,,59.6 µg/mL,47.3 µg/mL,47.3 µg/mL,59.6 µg/mL,
CCN(CC)CCCC(O)(c1ccc2ccccc2c1)C(c1ccccc1)c1cc2cc(Br)ccc2nc1OC (stereo not shown) [Compound 52],47.5 µg/mL,,,2.4 µg/mL,,,,15.0 µg/mL,,,15.0 µg/mL,11.9 µg/mL,,15.0 µg/mL,15.0 µg/mL,11.9 µg/mL,15.0 µg/mL,
COc1nc2ccc(Br)cc2cc1C(c1ccccc1)C(O)(CCCCN(C)C)c1ccc2ccccc2c1 (stereo not shown) [Compound 25],4.1 µg/mL,,,2.3 µg/mL,,,,58.4 µg/mL,,,1.9 µg/mL,1.9 µg/mL,,58.4 µg/mL,9.3 µg/mL,9.3 µg/mL,58.4 µg/mL,
COc1nc2ccc(-c3ccccc3)cc2cc1C(c1ccccc1)C(O)(CCCCN(C)C)c1ccc2ccccc2c1 (stereo not shown) [Compound 41],9.2 µg/mL,9.2 µg/mL,,9.2 µg/mL,,,9.2 µg/mL,9.2 µg/mL,,,9.2 µg/mL,36.6 µg/mL,,,,9.2 µg/mL,,
COc1nc2ccc(Br)cc2cc1C(c1ccccc1)C(O)(CCCN(C)C)c1ccccc1 (stereo not shown) [Compound 45],52.0 µg/mL,,,52.0 µg/mL,,,,41.3 µg/mL,,,41.3 µg/mL,52.0 µg/mL,,41.3 µg/mL,41.3 µg/mL,52.0 µg/mL,52.0 µg/mL,
COc1ccc2cc(C(O)(CCCCN(C)C)C(c3ccccc3)c3cc4ccc(Br)cc4nc3OC)ccc2c1 (stereo not shown) [Compound 31],,4.3 µg/mL,,9.7 µg/mL,4.3 µg/mL,1.9 µg/mL,9.7 µg/mL,,10.9 µg/mL,12.2 µg/mL,1.9 µg/mL,,4.3 µg/mL,,,,,
"COc1ccc2cc(C(O)(CCCCN(C)C)C(c3ccccc3)c3cc4cc(Br)ccc4nc3OC)ccc2c1 (single isomer, unassigned) [Compound 6]",9.7 µg/mL,,,4.9 µg/mL,,,,9.7 µg/mL,,,4.3 µg/mL,9.7 µg/mL,,,9.7 µg/mL,1.9 µg/mL,9.7 µg/mL,
COc1nc2cc(Br)ccc2cc1C(c1ccccc1)C(O)(CCCCN(C)C)c1ccc2ccccc2c1 (stereo not shown) [Compound 33],46.3 µg/mL,,,9.3 µg/mL,,,,5.8 µg/mL,,,4.1 µg/mL,52.0 µg/mL,,,,46.3 µg/mL,,
CNCCCCC(O)(c1ccc2ccccc2c1)C(c1ccccc1)c1cc2cc(Br)ccc2nc1OC (racemic) [Compound 75],4.03 µg/mL,,,0.9 µg/mL,,,,11.36 µg/mL,,,2.02 µg/mL,2.02 µg/mL,,,,1.8 µg/mL,,
"COc1nc2ccc(Br)cc2cc1C(c1ccccc1)C(O)(CCCCN1CCN(C)CC1)c1ccc2ccccc2c1 (single isomer, unassigned) [Compound 112]",2.02 µg/mL,,,2.54 µg/mL,,,,2.54 µg/mL,,,2.02 µg/mL,2.02 µg/mL,,,,2.02 µg/mL,,
